Experimental data as given in patent US20200069644A1, “NOVEL USE OF A FORMYL PEPTIDE RECEPTOR 2/ LIPOXIN A4 RECEPTOR (FPR2/ALX) AGONIST FOR TREATMENT OF HEART FAILURE” (BRISTOL- MYERS SQUIBB COMPANY, priority 2017, published 2020).
pEC50: −log10 of the molar value. Where “and” joins values, the source holds several entries; their conditions need not be identical. Equal values may be shown once.

Legend:
Type in all cases: cell-based
Rat FPR1 = target: T1, Rat FPR1 (Rattus norvegicus, UniProt D4A7Q2); assay: cAMP inhibition, rat FPR1 CHO cells
T1 construct: expressed in transfected cells; host or cells: CHO
T1 sequence (D4A7Q2 1-355): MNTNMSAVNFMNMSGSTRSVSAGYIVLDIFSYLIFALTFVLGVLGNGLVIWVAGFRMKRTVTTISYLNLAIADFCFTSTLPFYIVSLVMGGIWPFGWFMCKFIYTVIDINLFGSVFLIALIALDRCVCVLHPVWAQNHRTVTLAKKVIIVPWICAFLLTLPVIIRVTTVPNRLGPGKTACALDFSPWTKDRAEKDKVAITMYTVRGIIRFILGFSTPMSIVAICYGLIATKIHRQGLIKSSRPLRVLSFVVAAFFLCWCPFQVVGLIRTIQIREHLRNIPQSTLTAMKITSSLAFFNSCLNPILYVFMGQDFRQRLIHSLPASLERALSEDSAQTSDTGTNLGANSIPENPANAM

Mouse FPR1 = target: T2, Mouse FPR1 (Mus musculus, UniProt P33766); assay: cAMP inhibition, mouse FPR1/CHO-A12
T2 construct: expressed in transfected cells
T2 sequence (P33766 1-364): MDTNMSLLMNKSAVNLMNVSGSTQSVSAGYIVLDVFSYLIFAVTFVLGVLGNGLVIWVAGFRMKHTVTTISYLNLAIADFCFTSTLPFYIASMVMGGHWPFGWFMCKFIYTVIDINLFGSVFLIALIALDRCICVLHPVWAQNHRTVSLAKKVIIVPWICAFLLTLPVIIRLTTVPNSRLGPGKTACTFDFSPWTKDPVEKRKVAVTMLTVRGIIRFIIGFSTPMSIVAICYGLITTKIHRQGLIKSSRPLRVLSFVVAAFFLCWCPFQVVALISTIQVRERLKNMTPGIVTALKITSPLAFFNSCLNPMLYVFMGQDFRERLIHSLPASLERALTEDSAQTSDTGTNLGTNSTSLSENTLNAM

[1] = tested on: Mouse peritoneal macrophages; assay: Enhancement of phagocytosis of FITC zymosan; details: Peritoneal macrophage; mouse peritoneal macrophages elicited with 1% Biogel; read-out: EC50, enhancement of phagocytosis of fluorescently labeled zymosan
Procedure: Enhancement of phagocytosis Macrophages were elicited to the peritoneum of five C57BL6 mice by peritoneal injection of 1 mL of 1% Biogel in PBS (−/−) 4 days prior to harvest. Peritoneal exudates are harvested, combined and then filtered to remove Biogel beads. First, through a 70 um cell strainer followed by successively filtering through two 40 um cell strainers. The exudate is diluted with 1×PBS (−/−) to 50 mL and centrifuged at 300×g for 10 minutes at 4° C. The cell pellet is gently resuspended in 20-30 mL 1×PBS(+/+) and cells are counted using the Nexelcom Cellometer counter. Cell concentration is adjusted to 1,250,000 cells/mL in 1×PBS (+/+). 100 μL (125 k) cells are placed into each well of a 96-well Costar 3904 plate. The plates are centrifuged at 150×g for 30 seconds to promote adherence. […] Fluorescence signal from non-ingested Zymosan particles is quenched with 150 uL ice-cold 1:15 diluted Trypan Blue solution for 2 minutes and then aspirated to remove. Lastly, the plate is read on a SpectraMAX Gemini EM fluorescence plate reader in 150 ul of 1:50 diluted Trypan Blue. Plate Reader Settings=Bottom Read: Excitation 493 nm: Emission 525 nm: Cutoff 515 nm: Automix Off: Calibrate On: PMT=Auto: Column Priority: Reads/Well=20. […]

In the case of `COc1cc(F)c([C@@H]2CNC(=O)[C@H]2NC(=O)Nc2ccccc2)c(F)c1` [Compound 1, 1-((3S,4R)-4-(2,6-difluoro-4-methoxyphenyl)-2-oxopyrrolidin-3-yl)-3-phenylurea], the pEC50 (Rat FPR1) was 6.14, the pEC50 (Mouse FPR1) was ~6.42 and 6.42 and the pEC50 [1] was 8.70.
